Where two headings read alike, the source gives them in different places.
Tests used:
[1] = Interconversion, absorption and circulation of alpha-ET, beta-ET and ET-dione; conditions: for oxidation at the C-3 position to ET-dione: orally or parenterally (i.p., i.m. or i.v.)
Excerpt: This is the subject of U.S. application Ser. No. 078,610, filed July 28, 1987 and incorporated herein by reference.

[2] = C57BL/KsJ-db/db mice; cited from earlier work
[3] = in diet, diabetic, genetically obese mice; cited from earlier work
[4] = normal individuals, endogenous metabolite of DHEA; cited from earlier work
[5] = Free alpha-ET blood levels after oral suspensions in eight normal human volunteers (crossover, RIA)
Method: Each subject received all three drugs in randomized order with a one-week wash-out period between doses. Following an overnight fast, subjects received 200 mg of test drug suspended in approximately 6 oz. of apple juice. Blood samples were drawn immediately prior to drug administration and at 15 minutes, 30 minutes, 1, 2, 4, 8, 12 and 24 hours.

[6] = genetically obese mice, variety of routes; cited from earlier work
[7] = genetically obese or diabetic mice; cited from earlier work
[8] = oral, severely diabetic mammals; cited from earlier work
[9] = Body weight in C57BL/K db/db diabetic mice on ET-dione chow; type: in vivo, mouse (C57BL/K db/db); conditions: for 6 wk gain: 6 weeks
Excerpt: (§1) Eighteen C57BL/K db/db mice were divided into three groups of 5 and one group (control) of 3. This mouse strain is more diabetic and more resistant to weight gain reduction than the mouse species used in Example 1. The mice were weighed and then permitted to consume a commercially-available chow and water ad librium over a six-week study period. At the end of each week, the mice were reweighed and their blood sugar determined. The chow supplied to three of the groups had ET-dione admixed therewith at either a 0.4, 0.6 or 0 8% concentration.

[10] = Blood sugar in C57BL/K db/db diabetic mice on ET-dione chow; type: in vivo, mouse (C57BL/K db/db); parameters: Blood Sugar: unit not given here
Excerpt: as §1

[11] = A^vy /A mice, 0.4% ET-dione
Excerpt: Inhibition of the development of obesity was studied in two mutant mouse strains used for diabetes evaluation: C57BL/6, C3HeB/FeJ (A^vy /A). […] C57BL/6 mice (Jackson Laboratories, Bar Harbor, ME) display the genetic obesity syndrome markers obese (ob) and diabetes (db) A^vy /A mice (Jackson Laboratories, Bar Harbor, ME) are characterized by mild obesity and an enhanced susceptibility to certain tumors.
days during week 4 and were then returned to the 0.4% dose level.

[12] = rat, before feeding program
Method: Food consumption and body weight were measured weekly. […] Liver weight (absolute and % of body weight), total cholesterol, % of esterified cholesterol and triglycerides in the liver were also determined. In addition, epididymal fat pad weights were measured.

[13] = not given; remark: listed apart in the source

Question: For `C[C@]12CC[C@@H](O)C[C@H]1CC[C@@H]1[C@@H]2CC[C@]2(C)C(=O)CC[C@@H]12` [Alpha-ET, 5-beta-androstan-3-alpha-ol-17-one], which “oxidation at the C-3 position to ET-dione” value [1] is on record?
Answer: rapidly oxidized at the C-3 position to ET-dione

Question: What about the “% W vs Control Day 28” value (0.2% in diet, day 28) of the same compound?
Answer: -9.8%

Question: And the Blood Sugar [2]?
Answer: reduced blood sugar

Question: And the “effectiveness vs DHEA in preventing the development of diabetes” value (“effectiveness vs DHEA” below) [2]?
Answer: four time more effective than DHEA

Question: And the plasma insulin concentrations [2]?
Answer: increased plasma insulin concentrations

Question: What about the “protective effect on the pancreas (granules in islet beta cells)” value [2] of the same compound?
Answer: protective effect on the pancreas

Question: What about the anti-obesity properties [3] of the same compound?
Answer: effective both in preventing and in arresting the development of obesity

Question: What about the urinary excretion [4] of the same compound?
Answer: 3-5 mg per day

Question: And the “levels of conjugated alpha-ET relative to free alpha-ET” value ([5]; 30 minutes post-administration)?
Answer: 2-5 times

Question: With `C[C@]12CC[C@H](O)C[C@H]1CC[C@@H]1[C@@H]2CC[C@]2(C)C(=O)CC[C@@H]12` [Beta-ET, 5-beta-androstan-3-beta-ol-17-one] as the compound, how does the “oxidation at the C-3 position to ET-dione” value [1] read?
Answer: rapidly oxidized at the C-3 position to ET-dione

Question: And the Blood Sugar [2]?
Answer: reduced blood sugar

Question: What about the “effectiveness vs DHEA” value [2] of the same compound?
Answer: four time more effective than DHEA

Question: What about the plasma insulin concentrations [2] of the same compound?
Answer: increased plasma insulin concentrations

Question: And the “protective effect on the pancreas (granules in islet beta cells)” value [2]?
Answer: protective effect on the pancreas

Question: What about the anti-obesity properties [3] of the same compound?
Answer: effective both in preventing and in arresting the development of obesity

Question: What does the source list for `C[C@]12CC[C@H](O)CC1=CC[C@@H]1[C@@H]2CC[C@]2(C)C(=O)CC[C@@H]12` [DHEA, 3-beta-hydroxyandrost-5-en-17-one]?
Answer: rate of weight gain [6]: decreased the rate of weight gain; preventive effect on the development of diabetes [7]: marked preventive effect on the development of diabetes; glucose tolerance [8]: improved glucose tolerance; hyperglycemia [8]: restored hyperglycemia to normal levels

Question: With `C[C@]12CCC(=O)C[C@H]1CC[C@@H]1[C@@H]2CC[C@]2(C)C(=O)CC[C@@H]12` [ET-dione, 5-beta-androstanedione] as the compound, how does the 6 wk gain ([9]; 0.4% ET-dione in chow) read?
Answer: 26.1 g

Question: What about the “Body Weight” value ([9]; 0.4% ET-dione in chow, start) of the same compound?
Answer: 19.6 ± 1.8 g

Question: What about the “Body Weight” value ([9]; 0.4% ET-dione in chow, week 1) of the same compound?
Answer: 26.7 ± 1.7 g

Question: What about the “Body Weight” value ([9]; 0.4% ET-dione in chow, week 2) of the same compound?
Answer: 29.8 ± 1.2 g

Question: And the “Body Weight” value ([9]; 0.4% ET-dione in chow, week 3)?
Answer: 34.4 ± 0.83 g

Question: What about the “Body Weight” value ([9]; 0.4% ET-dione in chow, week 4) of the same compound?
Answer: 36.5 ± 0.8 g

Question: What about the “Body Weight” value ([9]; 0.4% ET-dione in chow, week 5) of the same compound?
Answer: 42.2 ± 1.0 g

Question: And the “Body Weight” value ([9]; 0.4% ET-dione in chow, week 6)?
Answer: 45.7 ± 0.7 g

Question: What about the 6 wk gain ([9]; 0.6% ET-dione in chow) of the same compound?
Answer: 24.1 g

Question: And the “Body Weight” value ([9]; 0.6% ET-dione in chow, start)?
Answer: 18.1 ± 1.6 g

Question: And the “Body Weight” value ([9]; 0.6% ET-dione in chow, week 1)?
Answer: 23.7 ± 1.9 g

Question: And the “Body Weight” value ([9]; 0.6% ET-dione in chow, week 2)?
Answer: 27.3 ± 1.8 g

Question: What about the “Body Weight” value ([9]; 0.6% ET-dione in chow, week 3) of the same compound?
Answer: 31.9 ± 1.9 g

Question: And the “Body Weight” value ([9]; 0.6% ET-dione in chow, week 4)?
Answer: 34.7 ± 1.9 g

Question: And the “Body Weight” value ([9]; 0.6% ET-dione in chow, week 5)?
Answer: 39.1 ± 1.6 g

Question: And the “Body Weight” value ([9]; 0.6% ET-dione in chow, week 6)?
Answer: 42.2 ± 0.9 g

Question: What about the 6 wk gain ([9]; 0.8% ET-dione in chow) of the same compound?
Answer: 21.7 g

Question: What about the “Body Weight” value ([9]; 0.8% ET-dione in chow, start) of the same compound?
Answer: 18.1 ± 1.0 g

Question: What about the “Body Weight” value ([9]; 0.8% ET-dione in chow, week 1) of the same compound?
Answer: 23.3 ± 0.7 g

Question: What about the “Body Weight” value ([9]; 0.8% ET-dione in chow, week 2) of the same compound?
Answer: 26.4 ± 0.6 g

Question: And the “Body Weight” value ([9]; 0.8% ET-dione in chow, week 3)?
Answer: 31.1 ± 0.76 g

Question: What about the “Body Weight” value ([9]; 0.8% ET-dione in chow, week 4) of the same compound?
Answer: 33.5 ± 0.91 g

Question: And the “Body Weight” value ([9]; 0.8% ET-dione in chow, week 5)?
Answer: 37.0 ± 0.9 g

Question: What about the “Body Weight” value ([9]; 0.8% ET-dione in chow, week 6) of the same compound?
Answer: 39.8 ± 1.2 g

Question: What about the “six-week weight gain, in words” value ([9]; ET-dione in chow, 0.4-0.8%) of the same compound?
Answer: reduced the six-week weight gain

Question: And the “Blood Sugar” value ([10]; 0.4% ET-dione in chow, week 1)?
Answer: 149 ± 3.9

Question: And the “Blood Sugar” value ([10]; 0.4% ET-dione in chow, week 2)?
Answer: 156 ± 8.3

Question: What about the “Blood Sugar” value ([10]; 0.4% ET-dione in chow, week 3) of the same compound?
Answer: 151 ± 6.3

Question: What about the “Blood Sugar” value ([10]; 0.4% ET-dione in chow, week 4) of the same compound?
Answer: 148 ± 5.6

Question: What about the “Blood Sugar” value ([10]; 0.4% ET-dione in chow, week 5) of the same compound?
Answer: 148 ± 17.2

Question: What about the “Blood Sugar” value ([10]; 0.4% ET-dione in chow, week 6) of the same compound?
Answer: 168 ± 24.5

Question: And the “Blood Sugar” value ([10]; 0.6% ET-dione in chow, week 1)?
Answer: 143 ± 9.0

Question: What about the “Blood Sugar” value ([10]; 0.6% ET-dione in chow, week 2) of the same compound?
Answer: 124 ± 10.7

Question: What about the “Blood Sugar” value ([10]; 0.6% ET-dione in chow, week 3) of the same compound?
Answer: 151 ± 11.5

Question: What about the “Blood Sugar” value ([10]; 0.6% ET-dione in chow, week 4) of the same compound?
Answer: 152 ± 3.7

Question: And the “Blood Sugar” value ([10]; 0.6% ET-dione in chow, week 5)?
Answer: 159 ± 17

Question: And the “Blood Sugar” value ([10]; 0.6% ET-dione in chow, week 6)?
Answer: 195 ± 37

Question: And the “Blood Sugar” value ([10]; 0.8% ET-dione in chow, week 1)?
Answer: 128 ± 5.0

Question: What about the “Blood Sugar” value ([10]; 0.8% ET-dione in chow, week 2) of the same compound?
Answer: 126 ± 6.8

Question: What about the “Blood Sugar” value ([10]; 0.8% ET-dione in chow, week 3) of the same compound?
Answer: 147 ± 4.2

Question: What about the “Blood Sugar” value ([10]; 0.8% ET-dione in chow, week 4) of the same compound?
Answer: 148 ± 3.7

Question: What about the “Blood Sugar” value ([10]; 0.8% ET-dione in chow, week 5) of the same compound?
Answer: 137 ± 6.7

Question: What about the “Blood Sugar” value ([10]; 0.8% ET-dione in chow, week 6) of the same compound?
Answer: 184 ± 31

Question: And the “blood sugar level vs untreated mice, in words” value ([10]; ET-dione in chow, 0.4-0.8%)?
Answer: roughly half that of the untreated mice

Question: What about the “blood levels of free alpha-ET” value ([1]; animal and human pharmacokinetic data) of the same compound?
Answer: increased blood levels of free alpha-ET

Question: And the “effectiveness vs 0.1% alpha- and beta-ET, in words” value [11]?
Answer: comparable in effectiveness to 0.1% alpha- and beta-ET

Question: And the “RIA value for alpha-ET, initial” value [12]?
Answer: approximately 40 nanograms per deciliter

Question: What about the “effectiveness on weight gain relative to alpha-ET” value (all concentrations tested) of the same compound?
Answer: almost twice as effective as alpha-ET

Question: And the “effectiveness relative to alpha-ET (general statement)” value (rat, in vivo)?
Answer: equally or, in some cases, almost twice as effective

Question: What about the “Food consumption, Av. Wks 1-4” value ([13]; 0.4% in diet, average weeks 1-4) of the same compound?
Answer: 22.0 g/day

Question: And the “effectiveness in reducing food consumption relative to alpha-ET” value ([13]; second rat study)?
Answer: equally effective as alpha-ET in reducing food consumption

Question: And the “blood levels of alpha-ET over equivalent dosages of alpha-ET” value [5]?
Answer: significantly enhanced blood levels of alpha-ET

Question: What about the “amounts of alpha-ET in blood, in words” value ([5]; 15 minutes to approximately 1 hour after administration) of the same compound?
Answer: significantly higher amounts of alpha-ET

Question: And the “free alpha-ET levels, in words, vs alpha-ET or beta-ET administration” value ([5]; four hours post-administration)?
Answer: significantly higher than from alpha-ET or beta-ET administration

Question: With `C[C@]12CC[C@@H](O)C[C@@H]1CC[C@@H]1[C@@H]2CC[C@]2(C)C(=O)CC[C@@H]12` [androsterone, reference compound] as the compound, how does the “effectiveness vs DHEA” value [2] read?
Answer: not

Question: Which “effectiveness vs DHEA” value [2] does the source give for `C[C@]12CC[C@H](O)C[C@@H]1CC[C@@H]1[C@@H]2CC[C@]2(C)C(=O)CC[C@@H]12` [epiandrosterone, reference compound] here?
Answer: not

Reference: patent publication US5006517A, “Treatment of Prader-Willi syndrome” (Progenics, Inc., priority 1989, dated 1991)
